Experimental findings from patent US8142801B2, “Pesticidal compositions and methods of use thereof” (EcoBlend, LLC, priority 2009, dated 2012) are described below.

The subject of assay [1] is Tick. Nature of the assay: Tick repellency on skin. The assay is classed as in vivo. The settings on record: on its own.
Assay [2] deals with Fire ants. As to the kind of experiment: Spray test on fire ants. The class given is in vivo, Red Imported species. On the procedure: The time various compositions take to both knock down (KD) and kill (TM) various pests was determined. As a control, results were compared using sodium lauryl sulfate by itself, and with the various fatty acids.
The tests were conducted for a maximum observation time of 30 minutes, after which time, the test, and all observations, was stopped.
Protocol: Fire ants (Red Imported species) were directly sprayed while traveling on the ground. The average amount of material per area was calculated. The amount of material to kill the Fire Ant was determined.

Consider `CCCCCCCCCCCCOS(=O)(=O)[O-].[Na+]` [sodium lauryl sulfate], for which the Repellency to ticks result in assay [1] is listed as “not observed to be particularly repellent”. Also, the “Amount of aqueous 10% SLS mixture to kill the fire ant” value in assay [2] was “around 20 ml”.
